Assay [1] deals with cells of the large-cell lung carcinoma of the tumor line LXFL-529L. Put plainly: Tumor cell growth inhibition, SRB-assay, LXFL-529L. The format is cell-based. Particulars: 50% growth inhibition, three days incubation in serum-containing medium.
In assay [2] the test system is cells of the mammary carcinoma cell line MCF-7. Nature of the assay: Tumor cell growth inhibition, SRB-assay, MCF-7. The format is cell-based. Particulars: 50% growth inhibition, three days incubation in serum-containing medium.

39 compounds from US6987092B1, “Indigoid bisindole derivatives” (Faustus Forschungs Cie. Translational Cancer Research GmbH, priority 1999, dated 2006) can be followed below.

Counter-ions that a name gives are not always drawn.

Turning to “3-[3′-[iminooxy-O-(2-D-glucopyranosylethyl)]-(2H′3H′)indol-2′-ylidene]-5-methyl-(2H3H)indol-2-one [Example 68]”, the IC50 in assay [1] turned out to be 17 ± 0.8 µM; in assay [2], 2.5 ± 0.8 µM.
In the same order, the values of “3-[3′-[iminooxy-O-(N-(1-deoxy-glucitol)-2-amino-ethyl)]-(2H′3H′)indol-2′-ylidene]-5-methyl-(2H3H)indol-2-one [Example 69]” are 3.5 ± 0.7 µM and 2.5 ± 0.9 µM.
In the same order, the values of “3-{3′-[iminooxy-O-(2-(2-amino-2-deoxy-D-galactopyranosyl)-ethyl)]-(2′H3′H)indol-2′-ylidene}(2H3H)indol-2-one [Example 54]” are 16 ± 1.1 µM and 9 ± 0.9 µM.
In the same order, the values of “3-{3′-[iminooxy-O-(2-(2-amino-2-deoxy-D-glucopyranosyl)-ethyl)]-(2′H3′H)indol-2′-ylidene}-(2H3H)indol-2-one [Example 53]” are 15 ± 0.9 µM and 7 ± 0.7 µM.
For the compound “3-{3′-[iminooxy-O-(2-(2-amino-ethyl)-amino-ethyl)]-(2′H3′H)indol-2′-ylidene}-(2H3H)indol-2-one [Example 66]”, the IC50 in assay [1] turned out to be 7 ± 0.6 µM; in assay [2], 8 ± 1.2 µM.
In the same order, the values of “3-{3′-[iminooxy-O-(2-D-galactopyranosylethyl)]-(2′H3′H)indol-2′-ylidene}-(2H3H)indol-2-one [Example 47]” are 17 ± 1.2 µM and 9.5 ± 0.9 µM.
For the compound “3-{3′-[iminooxy-O-(2-L-arabinopyranosylethyl)]-(2′H3′H)indol-2′-ylidene}-(2H3H)indol-2-one [Example 49]”, the IC50 in assay [1] was 20.5 ± 1.4 µM; in assay [2], 5 ± 0.7 µM.
In the same order, the values of “3-{3′-[iminooxy-O-(3-D-glucopyranosylpropyl)]-(2′H3′H)indol-2′-ylidene}-(2H3H)indol-2-one [Example 45]” are 19 ± 0.9 µM and 10.5 ± 0.6 µM.
In the same order, the values of “3-{3′-[iminooxy-O-((N,N)-bis(hydroxyethyl)-4-amino-butyl)]-(2H3H)indol-2′-ylidene}-(2H3H)indol-2-one [Example 61]” are 8 ± 0.3 µM and 12.4 ± 0.7 µM.
In the same order, the values of “3-{3′-[iminooxy-O-(O^4-α-D-glucopyranosyl-2-D-glucopyranosylethyl)]-(2′H3′H)indol-2′-ylidene}-(2H3H)indol-2-one [Example 46]” are 24 ± 1.3 µM and 7 ± 0.9 µM.
For `CC(C)c1ccc2c(c1)/C(=C1/Nc3ccccc3C1=O)C(=O)N2` [Example 3, 5-isopropyl-indirubin], the concentration for half-maximal inhibition (IC50) in assay [1] was 4 ± 0.2 µM; in assay [2], 0.5 ± 0.2 µM.
Consider `CCCc1ccc2c(c1)C(=C1Nc3ccccc3C1=O)C(=O)N2` [Example 4, 5-n-propyl-indirubin], for which the values for the IC50 in assay [1] and in assay [2] were 7 ± 0.4 µM and 6.5 ± 0.5 µM, respectively.
The compound `O=C(O)Cc1ccc2c(c1)C(=C1Nc3ccccc3C1=O)C(=O)N2` [Example 5, 5-(carboxymethyl)-indirubin] came in with an IC50 in assay [2] of 19.5 ± 1.4 µM.
With `O=C1Nc2ccc(CC(=O)N3CCNCC3)cc2C1=C1Nc2ccccc2C1=O` [Example 6, 5-[2-(piperazin-1-yl)-ethan-2-one-1-yl]-indirubin], the figures for the IC50 in assay [1] and in assay [2] were 4 ± 0.5 µM and 8 ± 0.9 µM, respectively.
Turning to `O=C1Nc2ccc(CC(=O)N3CCOCC3)cc2C1=C1Nc2ccccc2C1=O` [Example 7, 5-[2-(morpholin-4-yl)-ethan-2-one-1-yl]-indirubin], the IC50 stood at 5.5 ± 0.7 µM in assay [1] and 7.5 ± 0.6 µM in assay [2].
In the same order, the values of `NCCNC(=O)Cc1ccc2c(c1)C(=C1Nc3ccccc3C1=O)C(=O)N2` [Example 8, N-(2-amino-ethyl)-2-[3-(3′-oxo-(2′H3′H)indol-2′-ylidene)-(2H3H)indol-2-one-5-yl]-acetamide] are 3.5 ± 0.7 µM and 4 ± 0.6 µM.
In the same order, the values of `CNC(=O)Cc1ccc2c(c1)C(=C1Nc3ccccc3C1=O)C(=O)N2` [Example 9, N-methyl-2-[3-(3′-oxo-(2′H3′H)indol-2′-ylidene)-(2H3H)indol-2-one-5-yl]-acetamide] are 11.5 ± 0.6 µM and 17 ± 1 µM.
In the same order, the values of `CN(C)C(=O)Cc1ccc2c(c1)C(=C1Nc3ccccc3C1=O)C(=O)N2` [Example 10, N,N-dimethyl-2-[3-(3′-oxo-(2′H3′H)indol-2′-ylidene)-(2H3H)indol-2-one-5-yl]-acetamide] are 16 ± 0.9 µM and 20 ± 1.3 µM.
As to `COC(=O)CNC(=O)Cc1ccc2c(c1)C(=C1Nc3ccccc3C1=O)C(=O)N2` [Example 12, methyl-2-{2-[3-(3′-oxo-(2′H3′H)indol-2′-ylidene)-(2H3H)indol-2-one-5-yl]-acetylamino}-acetate], the IC50 turned out to be 8 ± 0.8 µM in assay [1] and 6.5 ± 1.2 µM in assay [2].
In the same order, the values of `O=C1Nc2ccc(CP(=O)(O)O)cc2C1=C1Nc2ccccc2C1=O` [Example 13, [3-(3′-oxo-(2′H3′H)indol-2′-ylidene)-(2H3H)indol-2-one-5-yl]-methyl-phosphonic Acid] are 8.5 ± 0.8 µM and 6.5 ± 1 µM.
In the same order, the values of `CCOP(=O)(Cc1ccc2c(c1)C(=C1Nc3ccccc3C1=O)C(=O)N2)OCC` [Example 14, diethyl-{[3-(3′-oxo-(2′H3′H)indol-2′-ylidene)-(2H3H)indol-2-one-5-yl]-methyl}-phosphonate] are 6.5 ± 1.2 µM and 6 ± 1.1 µM.
`CC(=O)Nc1ccc2c(c1)C(=C1Nc3ccccc3C1=O)C(=O)N2` [Example 16, 5-acetylamino-indirubin] registered an IC50 in assay [1] of 10 ± 0.8 µM.
For `O=C(O)CCC(=O)Nc1ccc2c(c1)C(=C1Nc3ccccc3C1=O)C(=O)N2` [Example 17, [3-(3′-oxo-(2′H3′H)indol-2′-ylidene)-(2H3H)indol-2-one-5-yl]-succinamic acid], the half-maximal inhibitory concentration (IC50) turned out to be 12.5 ± 0.7 µM in assay [1] and 14 ± 0.9 µM in assay [2].
Turning to `NCC(=O)Nc1ccc2c(c1)C(=C1Nc3ccccc3C1=O)C(=O)N2` [Example 18, 2-amino-N-[3-(3′-oxo-(2′H3′H)indol-2′-ylidene)-(2H3H)indol-2-one-5-yl]-acetamide], the IC50 came out at 4 ± 0.4 µM in assay [1] and 3 ± 0.3 µM in assay [2].
In the same order, the values of `CC(N)C(=O)Nc1ccc2c(c1)C(=C1Nc3ccccc3C1=O)C(=O)N2` (stereo not shown) [Example 19, 2-amino-N-[3-(3′-oxo-(2′H3′H)indol-2′-ylidene)-(2H3H)indol-2-one-5-yl]-propionamide] are 7 ± 0.7 µM and 5 ± 0.6 µM.
Take `NCCNc1ccc2c(c1)C(=C1Nc3ccccc3C1=O)C(=O)N2` [Example 20, 5-(2-amino-ethyl)-amino-indirubin]: the IC50 in assay [1] came to 4 ± 0.3 µM; in assay [2], 3.5 ± 0.4 µM.
As for `O=C1Nc2ccc(NCCO)cc2C1=C1Nc2ccccc2C1=O` [Example 21, 5-(2-hydroxy-ethyl)-amino-indirubin], the figures for the IC50 in assay [1] and in assay [2] were 3 ± 0.5 µM and 5 ± 0.6 µM, respectively.
For `O=C1Nc2ccc(S(=O)(=O)N3CCNCC3)cc2C1=C1Nc2ccccc2C1=O` [Example 22, indirubin-5-sulfonic acid-(piperazin-1-yl-amide)], the figures for the IC50 in assay [1] and in assay [2] were 3 ± 0.5 µM and 2 ± 0.3 µM, respectively.
In the same order, the values of `COC(=O)CNS(=O)(=O)c1ccc2c(c1)C(=C1Nc3ccccc3C1=O)C(=O)N2` [Example 24, methyl-2-{[3-(3′-oxo-(2′H3′H)indol-2′-ylidene)-(2H3H)indol-2-one-5-yl]-sulfonylamino}-acetate] are 16 ± 0.8 µM and 25 ± 0.9 µM.
In the same order, the values of `CC(C)c1ccc2c(c1)C(=C1Nc3ccccc3C1=NO)C(=O)N2` [Example 27, 5-isopropyl-indirubin-3′-monooxime] are 5.5 ± 0.6 µM and 5 ± 0.9 µM.
Consider `CC(=O)Nc1ccc2c(c1)C(=C1Nc3ccccc3C1=NO)C(=O)N2` [Example 29, 5-acetylamino-indirubin-3′-monooxime], for which the IC50 was determined as 4 ± 0.9 µM in assay [1] and 5 ± 0.5 µM in assay [2].
On to `NCC(=O)Nc1ccc2c(c1)C(=C1Nc3ccccc3C1=NO)C(=O)N2` [Example 30, 2-amino-N-[3-(3′-hydroxyimino-(2H3H)indol-2′-ylidene)-(2H3H)-indol-2-one-5-yl]-acetamide], for which the results for the IC50 in assay [1] and in assay [2] were 6 ± 0.8 µM and 6 ± 0.7 µM, respectively.
In the same order, the values of `O=C1Nc2ccccc2C1=C1Nc2ccccc2C1=NOCCOCCO` [Example 33, 3-{3′-[iminooxy-O-(2-(2-hydroxy-ethoxy)-ethyl)]-(2′H3′H)indol-2′-ylidene}-(2H3H)indol-2-one] are 2 ± 0.4 µM and 2.5 ± 0.5 µM.
In the same order, the values of `CC(C)(O)CON=C1C(=C2C(=O)Nc3ccccc32)Nc2ccccc21` [Example 34, 3-{3′-[iminooxy-O-((2-hydroxy-2-methyl)-propyl)]-(2′H3′H)indol-2′-ylidene}-(2H3H)indol-2-one] are 2 ± 0.5 µM and 2 ± 0.3 µM.
In assay [2], `O=C(O)CCON=C1C(=C2C(=O)Nc3ccccc32)Nc2ccccc21` [Example 36, 3-{O-[2′-(2-oxo-(2H3H)indol-3-ylidene)-(2′H3′H)indol-3′-ylidene]-aminooxy}-propionic Acid (Sodium Salt)] came in with an IC50 of 16 ± 0.7 µM.
With `O=C(O)CCCON=C1C(=C2C(=O)Nc3ccccc32)Nc2ccccc21` [Example 37, 4-{O-[2′-(2-oxo-(2H3H)indol-3-ylidene)-(2′H3′H)indol-3′-ylidene]-aminooxy}-butyric Acid (Sodium Salt)], the IC50 in assay [1] was 12 ± 1 µM; in assay [2], 14 ± 1.1 µM.
For `O=C(O)CCCCON=C1C(=C2C(=O)Nc3ccccc32)Nc2ccccc21` [Example 38, 5{O-[2′-(2-oxo-(2H3H)indol-3-ylidene)-(2′H3′H)indol-3′-ylidene]-aminooxy}-pentanoic Acid (Sodium Salt)], the figures for the IC50 in assay [1] and in assay [2] were 14 ± 0.8 µM and 14 ± 0.7 µM, respectively.
Compound `O=C1Nc2ccccc2C1=C1Nc2ccccc2C1=NOCCN[C@H]1C(O)O[C@H](CO)[C@H](O)[C@@H]1O` (stereo partly shown) [Example 57, 3-{3′-[iminooxy-O-(N-(2-deoxy-galactose)-2-amino-ethyl)]-(2′H3′H)indol-2′-ylidene}-(2H3H)indol-2-one] had an IC50 in assay [1] of 23 ± 1.4 µM.
On to `CN1CCN(CCON=C2C(=C3C(=O)Nc4ccccc43)Nc3ccccc32)CC1` [Example 65, 3-{3′-[iminooxy-O-(2-(4-methyl-piperazin-1-yl)-ethyl)]-(2′H3′H)indol-2′-ylidene}-(2H3H)indol-2-one], for which the IC50 in assay [2] is 7.5 ± 0.8 µM.
